In this assay the target is T1, human enzyme NAMPT (full length) (Homo sapiens, UniProt P43490).
T1 construct: human enzyme NAMPT (full length)
Nature of the assay: NMN fluorescence biochemical assay (stimulation of NMN synthesis by NAMPT). Particulars: for pEC50: concentration giving half-maximal activation, read-out: Enzymatic EC50; for Enzymatic Emax: fold change of maximal activation compared to DMSO. As for the experimental part: Certain compounds described herein were assayed for their ability to stimulate the synthesis of nicotinamide mononucleotide (NMN) by human enzyme NAMPT (full length). The enzymatic assay was performed in a 384-well plate using a TMD buffer (50 mM Tris-HCl, 10 mM MgCl2, 2 mM DTT, pH 7.5). Purified NAMPT (100 nM) was pre-incubated with 0.2 μL. DMSO solution of the test compound (with a series of concentrations) in 10 μL TMD buffer for 15 min at 37° C. The reaction was initiated by adding 10 μL solution of NAM (50 μM), PRPP (100 μM), and ATP (4 mM) in TMD buffer. After 1 h of incubation at 37 T, an aliquot (20 μL) of the NMN-containing sample was sequentially mixed with 5 μL of 20% acetophenone (in DMSO) and 5 μL of 2M KOH. The mixture was placed on ice for 10 min. Next, 22.5 μL of 100% formic acid was added to each sample, vortexed, and then incubated at 37° C. for 20 min. Fluorescence (Ex/Em=382/445 nm) was measured using an Envision plate reader. The potency measurements for the test compounds were quantified and represented as EC50 (concentration of a compound that gives half-maximal activation) and Emax (fold change of a compound's maximal activation compared to DMSO).

The mark [1] stands for this setting: NMN fluorescence assay, purified human NAMPT 100 nM.
The mark [2] stands for this setting: NMN synthesis by purified human NAMPT (100 nM).

pEC50: −log10 of the molar value. Where two headings read alike, the source gives them in different places. Where only a bound is given, the exact number is not on record here.

T1 sequence (P43490 whole entry): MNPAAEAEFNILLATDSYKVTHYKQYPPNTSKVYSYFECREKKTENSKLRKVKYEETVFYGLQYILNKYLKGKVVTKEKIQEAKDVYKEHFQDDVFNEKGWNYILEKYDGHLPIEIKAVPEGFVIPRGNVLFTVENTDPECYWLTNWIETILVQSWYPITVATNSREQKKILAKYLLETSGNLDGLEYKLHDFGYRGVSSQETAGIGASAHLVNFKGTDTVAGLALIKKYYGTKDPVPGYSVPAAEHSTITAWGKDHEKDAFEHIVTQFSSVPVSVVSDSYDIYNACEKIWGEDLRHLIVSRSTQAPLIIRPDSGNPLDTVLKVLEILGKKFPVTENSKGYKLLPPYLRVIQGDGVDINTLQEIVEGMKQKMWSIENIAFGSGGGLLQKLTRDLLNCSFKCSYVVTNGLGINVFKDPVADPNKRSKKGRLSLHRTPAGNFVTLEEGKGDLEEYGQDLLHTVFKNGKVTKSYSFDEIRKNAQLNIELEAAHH

Take `Cn1cc(C#CCN2C(=O)c3ccccc3C2Cc2c(Cl)cnn2C)cn1` (centres unmarked) [Compound 501, 3-((4-chloro-1-methyl-1H-pyrazol-5-yl)methyl)-2-(3-(1-methyl-1H-pyrazol-4-yl)prop-2-yn-1-yl)isoindolin-1-one]: the “Enzymatic Emax” value is listed as “C (2≥C)”. In addition, under setting [1], the negative-log EC50 (pEC50) – broadly, −log10 of the EC50, conventionally taken in molar units – is 5.30 to 6.30.

As for `Cc1ccnc(C#N)c1CC1c2ccccc2C(=O)N1CC1CCc2[nH]nnc2C1` (centres unmarked) [Compound 454, 4-methyl-3-((3-oxo-2-((4,5,6,7-tetrahydro-1H-benzo[d][1,2,3]triazol-5-yl)methyl)isoindolin-1-yl)methyl)picolinonitrile], the “Enzymatic Emax” value is reported as “C (2≥C)”. For the same compound, the pEC50 under setting [1] was at most 5.30.

Consider `Cn1ncc(Cl)c1CC1c2ccccc2C(=O)N1Cc1ccc2c(cnn2C)c1` (centres unmarked) [Compound 586, 3-((4-chloro-1-methyl-1H-pyrazol-5-yl)methyl)-2-((1-methyl-1H-indazol-5-yl)methyl)isoindolin-1-one], for which the “Enzymatic Emax” value is listed as “C (2≥C)”. Further, the negative-log EC50 (pEC50) under setting [1] is at most 5.30.

In the case of `O=C1c2ccccc2C(Cc2ncccc2Br)N1Cc1ncc(O)cn1` (centres unmarked) [Compound 505, 3-((3-bromopyridin-2-yl)methyl)-2-((5-hydroxypyrimidin-2-yl)methyl)isoindolin-1-one], the “Enzymatic Emax” value was “C (2≥C)”. Besides, the pEC50 under setting [1] is at most 5.30.

As to `CC(=O)Nc1ncc(CN2C(=O)c3ccccc3C2Cc2ncccc2Br)cn1` (centres unmarked) [Compound 443, N-(5-((1-((3-bromopyridin-2-yl)methyl)-3-oxoisoindolin-2-yl)methyl)pyrimidin-2-yl)acetamide], the “Enzymatic Emax” value is “C (2≥C)”. Also, the pEC50 under setting [1] is 5.30 to 6.30.

On to `CC(C)c1cccnc1CC1c2ccccc2C(=O)N1Cc1ccc2[nH]c(=O)oc2c1` (centres unmarked) [Compound 181, 6-((1-((3-isopropylpyridin-2-yl)methyl)-3-oxoisoindolin-2-yl)methyl)benzo[d]oxazol-2(3H)-one], for which the “Enzymatic Emax” value is “B (3≥B>2)”. For the same compound, under setting [2], the pEC50 is at most 5.30.

Take `Cn1ncc(Cl)c1CC1c2ccccc2C(=O)N1CC1CCc2[nH]nnc21` (centres unmarked) [Compound 457, 3-((4-chloro-1-methyl-1H-pyrazol-5-yl)methyl)-2-((1,4,5,6-tetrahydrocyclopenta[d][1,2,3]triazol-4-yl)methyl)isoindolin-1-one]: the “Enzymatic Emax” value is listed as “C (2≥C)”. Further, the negative-log EC50 (pEC50) under setting [1] is at most 5.30.

With `O=C1c2ccccc2C(Cc2ncccc2C2CC2)N1Cc1ccc2[nH]c(=O)oc2c1` (centres unmarked) [Compound 184, 6-((1-((3-cyclopropylpyridin-2-yl)methyl)-3-oxoisoindolin-2-yl)methyl)benzo[d]oxazol-2(3H)-one], the “Enzymatic Emax” value is on record as “B (3≥B>2)”. Further, under setting [2], the pEC50 is 5.30 to 6.30.

Regarding `Cn1ncc(Cl)c1CC1c2ccccc2C(=O)N1CC1CC(=O)C1` (centres unmarked) [Compound 556, 3-((4-chloro-1-methyl-1H-pyrazol-5-yl)methyl)-2-((3-oxocyclobutyl)methyl)isoindolin-1-one], the “Enzymatic Emax” value is recorded as “B (3≥B>2)”. Further, the pEC50 under setting [1] was at most 5.30.

For `Cn1ncc(Cl)c1CC1c2ccccc2C(=O)N1Cc1ccc2[nH]c(=O)oc2c1` (centres unmarked) [Compound 251, 6-((1-((4-chloro-1-methyl-1H-pyrazol-5-yl)methyl)-3-oxoisoindolin-2-yl)methyl)benzo[d]oxazol-2(3H)-one], the “Enzymatic Emax” value is reported as “A (A>3)”. Also, the negative-log EC50 (pEC50) under setting [2] was over 6.30.

`O=C1COc2ccccc2N1Cc1ccc(O)cc1` [Compound 6, 4-(4-hydroxybenzyl)-2H-benzo[b][1,4]oxazin-3(4H)-one]: the “Enzymatic Emax” value is given as “B (3≥B>2)”. The negative logarithm of the EC50 (pEC50) under setting [2] is at most 5.30.

`Cc1ccc(CN2C(=O)c3ccccc3C2Cc2c(Cl)cnn2C)cc1` (centres unmarked) [Compound 503, 3-((4-chloro-1-methyl-1H-pyrazol-5-yl)methyl)-2-(4-methylbenzyl)isoindolin-1-one]: the “Enzymatic Emax” value is “C (2≥C)”. In addition, the pEC50 under setting [1] was at most 5.30.

`COc1ccc(CC2c3ccccc3C(=O)N2Cc2ccc3[nH]c(=O)oc3c2)cc1` (centres unmarked) [Compound 213, 6-((1-(4-methoxybenzyl)-3-oxoisoindolin-2-yl)methyl)benzo[d]oxazol-2(3H)-one]: the “Enzymatic Emax” value is “A (A>3)”. The pEC50 under setting [2] is 5.30 to 6.30.

For `N#CC1c2ccccc2C(=O)N1Cc1ccc(O)cc1` (centres unmarked) [Compound 28, 2-(4-hydroxybenzyl)-3-oxoisoindoline-1-carbonitrile], the “Enzymatic Emax” value is “A (A>3)”. The pEC50 under setting [2] was at most 5.30.

Consider `Cn1ncc(Cl)c1CC1c2cccc(Br)c2C(=O)N1CC1CC2(CNC(=O)O2)C1` (centres unmarked) [Compound 434, 2-((4-bromo-1-((4-chloro-1-methyl-1H-pyrazol-5-yl)methyl)-3-oxoisoindolin-2-yl)methyl)-5-oxa-7-azaspiro[3.4]octan-6-one], for which the “Enzymatic Emax” value is recorded as “B (3≥B>2)”. Also, under setting [1], the pEC50 was 5.30 to 6.30.

As for `O=C1c2ccccc2C(Cc2ncccc2Br)N1Cc1ccn2c(CO)nnc2c1` (centres unmarked) [Compound 323, 3-((3-bromopyridin-2-yl)methyl)-2-((3-(hydroxymethyl)-[1,2,4]triazolo[4,3-a]pyridin-7-yl)methyl)isoindolin-1-one], the “Enzymatic Emax” value is on record as “B (3≥B>2)”. Also, under setting [1], the negative-log EC50 (pEC50) was at most 5.30.

For the compound `Cc1nc2cc(CN3C(=O)c4ccccc4C3Cc3ncccc3Br)ccc2[nH]1` (centres unmarked) [Compound 358, 3-((3-bromopyridin-2-yl)methyl)-2-((2-methyl-1H-benzo[d]imidazol-5-yl)methyl)isoindolin-1-one], the “Enzymatic Emax” value is on record as “A (A>3)”. Further, the negative-log EC50 (pEC50) under setting [1] was 5.30 to 6.30.

With `COc1ncc(CN2C(=O)c3ccccc3C2Cc2c(Cl)cnn2C)cc1F` (centres unmarked) [Compound 532, 3-((4-chloro-1-methyl-1H-pyrazol-5-yl)methyl)-2-((5-fluoro-6-methoxypyridin-3-yl)methyl)isoindolin-1-one], the “Enzymatic Emax” value is on record as “C (2≥C)”. The negative logarithm of the EC50 (pEC50) under setting [1] is at most 5.30.

Consider `N#Cc1nccc(Cl)c1CC1c2cccc(F)c2C(=O)N1Cc1ccc2[nH]c(=O)oc2c1` (centres unmarked) [Compound 286, 4-chloro-3-((4-fluoro-3-oxo-2-((2-oxo-2,3-dihydrobenzo[d]oxazol-6-yl)methyl)isoindolin-1-yl)methyl)picolinonitrile], for which the “Enzymatic Emax” value is reported as “B (3≥B>2)”. Further, the negative-log EC50 (pEC50) under setting [2] was over 6.30.

In the case of `NC(=O)c1ccc(CC2c3ccccc3C(=O)N2Cc2ccc3[nH]c(=O)oc3c2)cc1` (centres unmarked) [Compound 253, 4-((3-oxo-2-((2-oxo-2,3-dihydrobenzo[d]oxazol-6-yl)methyl)isoindolin-1-yl)methyl) benzamide], the “Enzymatic Emax” value is given as “A (A>3)”. Further, the negative logarithm of the EC50 (pEC50) under setting [2] is at most 5.30.

For the compound `Cn1ncc(Cl)c1CC1c2ccccc2C(=O)N1Cc1ccc(OC(F)F)cc1` (centres unmarked) [Compound 528, 3-((4-chloro-1-methyl-1H-pyrazol-5-yl)methyl)-2-(4-(difluoromethoxy)benzyl)isoindolin-1-one], the “Enzymatic Emax” value is listed as “C (2≥C)”. Besides, the pEC50 under setting [1] was at most 5.30.

Regarding `COC(C)(C)c1ccc2c(c1)C(Cc1c(Cl)cnn1C)N(Cc1ccc3[nH]nnc3c1)C2=O` (centres unmarked) [Compound 396, 2-((1H-benzo[d][1,2,3]triazol-5-yl)methyl)-3-((4-chloro-1-methyl-1H-pyrazol-5-yl)methyl)-5-(2-methoxypropan-2-yl)isoindolin-1-one], the “Enzymatic Emax” value is on record as “B (3≥B>2)”. Further, the negative-log EC50 (pEC50) under setting [1] is 5.30 to 6.30.

The values above are taken from patent US20260078130A1, “NAMPT MODULATORS, PREPARATIONS, AND USES THEREOF” (SIRONAX LTD., priority 2022, published 2026).
